The values below come from patent publication US11866430B2, “Naphthyridinone compounds useful as T cell activators” (priority 2018, dated 2024).

In assay [1] the target is T1, human DGKα (Homo sapiens (Human), UniProt P23743). Description: DGKα LIPGLO assay (extruded liposome substrate). It is filed as biochemical. The method, then:
The DGKα and DGKζ reactions were performed using either extruded liposome (DGKα and DGKζ LIPGLO assays) or detergent/lipid micelle substrate (DGKα and DGKζ assays). The reactions were carried out in 50 mM MOPS pH 7.5, 100 mM NaCl, 10 mM MgCl2, 1 μM CaCl2, and 1 mM DTT (assay buffer). The reactions using a detergent/lipid micelle substrate also contained 50 mM octyl B-D-glucopyranoside. […] The lipid substrate concentrations were […], 0.25 mM DAG, and 2.75 mM PC for the extruded liposome reactions.
(§1) The compound inhibition studies were carried out as follows: 50 nL droplets of each test compound (top concentration 10 mM with 11 point, 3-fold dilution series for each compound) solubilized in DMSO were transferred to wells of a white 1536 well plate (Corning 3725). A 5 mL enzyme/substrate solution at 2× final reaction concentration was prepared by combining 2.5 mL 4× enzyme solution (20 nM DGKα or DGKζ (prepared as described below) in assay buffer) and 2.5 mL of either 4× liposome or 4× detergent/lipid micelle solution (compositions described below) and incubated at room temperature for 10 minutes. Next, 1 μL 2× enzyme/substrate solution was added to wells containing the test compound and reactions were initiated with the addition of 1 μL 300 uM ATP. The reactions were allowed to proceed for 1 hr, after which 2 μL Glo Reagent (Promega V9101) was added and incubated for 40 minutes. Next, 4 μL Kinase Detection Reagent was added and incubated for 30 minutes. Luminescence was recorded using an EnVision microplate reader. […] The compounds were evaluated at 11 concentrations to determine IC50.
(§2) The PC, DAG, and PS were dissolved in chloroform, combined, and dried in vacuo to a thin film. The lipids were hydrated to 20 mM in 50 mM MOPS pH 7.5, 100 mM NaCl, 5 mM MgCl2, and were freeze-thawed five times. The lipid suspension was extruded through a 100 nm polycarbonate filter eleven times. […] The liposome preparation was stored at 4° C. for as long as four weeks.
Human DGK-alpha-TVMV-His-pFBgate and human DCK-zeta-transcript variant-2-TVMV-His-pFBgate baculovirus samples were generated using the Bac-to-Bac baculovirus expression system (Invitrogen) according to the manufacturer's protocol. The DNA used for expression of DGK-alpha and DGK-zeta have SEQ ID NOs: 1 and 3, respectively. Baculovirus amplification was achieved using infected Sf9 cells at 1:1500 virus/cell ratios, and grown for 65 hours at 27° C. post-transfection.
(§3) The expression scale up for each protein was carried out in the Cellbag 50 L WAVE-Bioreactor System 20/50 from GE Healthcare Bioscience. 12 L of 2×10^6 cells/mL Sf9 cells (Expression System, Davis, Calif.) grown in ESF921 insect medium (Expression System) were infected with virus stock at 1:200 virus/cell ratios, and grown for 66-68 hours at 27° C. post-infection. The infected cell culture was harvested by centrifugation at 2000 rpm for 20 min 4° C. in a SORVALL® RC12BP centrifuge. The cell pellets were stored at −70° C. until purification.
Full length human DGKα and DGKζ, each expressed containing a TVMV-cleavable C-terminal Hexa-His tag sequence (SEQ ID NOs: 2 and 4, respectively) and produced as described above, were purified from Sf) baculovirus-infected insect cell paste. The cells were lysed using nitrogen cavitation method with a nitrogen bomb (Parr Instruments), and the lysates were clarified by centrifugation. […] The three steps column chromatography included nickel affinity resin capture (i.e. HisTrap FF crude, GE Healthcare), followed by size exclusion chromatography (i.e. HiLoad 26/600 Superdex 200 prep grade, GE Healthcare for DGK-alpha, and HiPrep 26/600 Sephacryl S 300_HR, GE Healthcare for DGK-zeta). The third step was ion exchange chromatography, and differed for the two isoforms.

For assay [2], the target named is T2, human DGKζ (Homo sapiens (Human), UniProt Q13574). Put plainly: DGKζ LIPGLO assay (extruded liposome substrate). The class given is biochemical. The method, then:
The DGKα and DGKζ reactions were performed using either extruded liposome (DGKα and DGKζ LIPGLO assays) or detergent/lipid micelle substrate (DGKα and DGKζ assays). The reactions were carried out in 50 mM MOPS pH 7.5, 100 mM NaCl, 10 mM MgCl2, 1 μM CaCl2, and 1 mM DTT (assay buffer). The reactions using a detergent/lipid micelle substrate also contained 50 mM octyl B-D-glucopyranoside.
as §1, with “A” for “The compound inhibition studies were carried out as follows: 50 nL droplets of each test compound (top concentration 10 mM with 11 point, 3-fold dilution series for each compound) solubilized in DMSO were transferred to wells of a white 1536 well plate (Corning 3725). A”
as §2
Baculovirus amplification was achieved using infected Sf9 cells at 1:1500 virus/cell ratios, and grown for 65 hours at 27° C. post-transfection.
as §3
The cells were lysed using nitrogen cavitation method with a nitrogen bomb (Parr Instruments), and the lysates were clarified by centrifugation. […] The three steps column chromatography included nickel affinity resin capture (i.e. HisTrap FF crude, GE Healthcare), followed by size exclusion chromatography (i.e. HiLoad 26/600 Superdex 200 prep grade, GE Healthcare for DGK-alpha, and HiPrep 26/600 Sephacryl S 300_HR, GE Healthcare for DGK-zeta). The third step was ion exchange chromatography, and differed for the two isoforms. DGKα was polished using Q-Sepharose anion exchange chromatography (GE Healthcare). DGKζ was polished using SP Sepharose cation exchange chromatography (GE Healthcare). The proteins were delivered at concentrations of ≥2 mg/mL. The formulation buffers were identical for both proteins: 50 mM Hepes, pH 7.2, 500 mM NaCl, 10% v/v glycerol, 1 mM TCEP, and 0.5 mM EDTA.

For assay [3], the target named is T1, human DGKα. Put plainly: biochemical. The settings on record: detergent/lipid micelle substrate; read-out: DGKα IC50. In a few lines: (§4)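 Full-length human DGKζ (and DGKα), C-terminal His-tagged, Sf9-expressed, with phosphatidylserine/DAG micelles in 50 mM octyl glucoside; buffer 50 mM MOPS pH 7.5, 100 mM NaCl, 10 mM MgCl2, 1 μM CaCl2, 1 mM DTT.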
The target of assay [4] is T2, human DGKζ. Put plainly: DGKζ assay (detergent/lipid micelle substrate). It is filed as biochemical. In a few lines:
as §4

In assay [5] the test system is pre-activated CD4 T cells and Raji cells. Description: Raji CD4 T Cell IL2 Assay. The class given is cell-based. The settings on record: Homo sapiens, Raji.
Where [6] appears, read: extruded liposome substrate, read-out: DGKζ LIPGLO IC50.

T2 sequence (Q13574 other isoform, or with tags, fused parts or gaps): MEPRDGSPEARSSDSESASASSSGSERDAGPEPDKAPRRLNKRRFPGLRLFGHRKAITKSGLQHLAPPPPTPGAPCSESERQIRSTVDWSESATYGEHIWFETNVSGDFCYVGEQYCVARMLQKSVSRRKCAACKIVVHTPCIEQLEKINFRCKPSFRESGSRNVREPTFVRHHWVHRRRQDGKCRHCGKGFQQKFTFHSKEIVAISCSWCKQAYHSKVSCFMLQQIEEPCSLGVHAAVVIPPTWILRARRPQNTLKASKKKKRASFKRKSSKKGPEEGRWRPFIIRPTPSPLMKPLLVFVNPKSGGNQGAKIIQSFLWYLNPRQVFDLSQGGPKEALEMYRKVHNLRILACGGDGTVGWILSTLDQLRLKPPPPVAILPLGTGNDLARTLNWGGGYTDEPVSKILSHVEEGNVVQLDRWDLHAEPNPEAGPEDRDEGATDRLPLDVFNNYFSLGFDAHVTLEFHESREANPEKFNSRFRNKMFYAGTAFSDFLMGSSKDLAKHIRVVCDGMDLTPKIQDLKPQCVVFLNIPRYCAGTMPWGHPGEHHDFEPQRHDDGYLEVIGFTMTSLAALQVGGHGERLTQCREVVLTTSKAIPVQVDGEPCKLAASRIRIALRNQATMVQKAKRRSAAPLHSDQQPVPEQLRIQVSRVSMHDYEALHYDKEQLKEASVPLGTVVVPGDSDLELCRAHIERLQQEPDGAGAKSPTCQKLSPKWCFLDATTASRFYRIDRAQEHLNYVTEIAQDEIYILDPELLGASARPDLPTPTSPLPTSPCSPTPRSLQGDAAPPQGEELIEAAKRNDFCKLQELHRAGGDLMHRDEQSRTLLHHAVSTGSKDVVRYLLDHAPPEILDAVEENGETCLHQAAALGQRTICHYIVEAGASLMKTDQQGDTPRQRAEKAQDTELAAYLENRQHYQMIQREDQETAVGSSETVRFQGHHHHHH
T1 sequence (P23743 other isoform, or with tags, fused parts or gaps): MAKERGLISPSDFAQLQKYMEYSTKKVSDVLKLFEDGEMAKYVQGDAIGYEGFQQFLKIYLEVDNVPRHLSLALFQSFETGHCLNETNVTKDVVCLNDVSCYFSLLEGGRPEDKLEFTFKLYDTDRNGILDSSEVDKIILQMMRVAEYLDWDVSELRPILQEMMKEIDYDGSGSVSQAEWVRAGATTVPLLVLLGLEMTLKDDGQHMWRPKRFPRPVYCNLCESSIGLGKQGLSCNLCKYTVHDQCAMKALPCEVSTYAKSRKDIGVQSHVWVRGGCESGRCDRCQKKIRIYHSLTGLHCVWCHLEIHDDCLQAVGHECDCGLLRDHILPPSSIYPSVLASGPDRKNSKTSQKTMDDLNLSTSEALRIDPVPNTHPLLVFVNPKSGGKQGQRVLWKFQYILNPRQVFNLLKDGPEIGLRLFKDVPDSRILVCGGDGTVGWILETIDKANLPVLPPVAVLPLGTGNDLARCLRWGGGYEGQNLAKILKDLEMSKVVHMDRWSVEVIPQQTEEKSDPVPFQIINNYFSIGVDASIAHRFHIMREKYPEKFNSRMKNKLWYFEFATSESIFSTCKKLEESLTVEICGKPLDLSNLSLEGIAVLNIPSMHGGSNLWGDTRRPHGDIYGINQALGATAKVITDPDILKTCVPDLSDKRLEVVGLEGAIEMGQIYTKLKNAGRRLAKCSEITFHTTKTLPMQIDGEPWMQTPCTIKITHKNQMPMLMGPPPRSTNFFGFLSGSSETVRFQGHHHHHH

`CC(c1ccc(F)cc1)N1CCN(c2c(C#N)c(=O)n(CC3CC3)c3ccc(Br)nc23)CC1` (single isomer, unassigned) [Example 163, 6-bromo-1-(cyclopropylmethyl)-4-(4-(1-(4-fluorophenyl)ethyl)piperazin-1-yl)-2-oxo-1,2-dihydro-1,5-naphthyridine-3-carbonitrile]: the IC50 (as a rule, the concentration needed to halve the response being measured) against human DGKα [1] is 110 µM; against human DGKζ [2] (DGKζ LIPGLO IC50, extruded liposome substrate), 110 µM; on human DGKα [3] it was more than 240 µM; against human DGKζ [4] (DGKζ IC50, detergent/lipid micelle substrate) it was more than 240 µM.
Turning to `Cc1ccc(C(c2ccccc2)N2CCN(c3c(C#N)c(=O)n(C)c4ccc(C#N)nc34)CC2)cc1` (stereo not shown) [Example 408, 5-methyl-8-{4-[(4-methylphenyl)(phenyl)methyl]piperazin-1-yl}-6-oxo-5,6-dihydro-1,5-naphthyridine-2,7-dicarbonitrile], the 50% inhibitory concentration (IC50) against human DGKα [1] turned out to be 9 µM; at human DGKζ [2] (setting [6]) it was 1.1 µM.
As for `C=CCn1c(=O)c([N+](=O)[O-])c(N2CCN(C(c3ccccc3)c3ccccc3)CC2)c2ncccc21` [Example 176, 1-all-4-(4-benzhydrylpiperazin-1-yl)-3-nitro-1,5-naphthyridin-2(1H)-one], the IC50 against human DGKα [1] was more than 240 µM; at human DGKζ [2] (setting [6]), 27 µM; in assay [5], 3 µM.
Take `COc1cccnc1C(c1ccc(F)cc1)N1CCN(c2c(C#N)c(=O)n(C)c3ccc(C)nc23)CC1` (stereo not shown) [Example 255, 4-{4-[(4-fluorophenyl)(3-methoxypyridin-2-yl)methyl]piperazin-1-yl}-1,6-dimethyl-2-oxo-1,2-dihydro-1,5-naphthyridine-3-carbonitrile]: the concentration for half-maximal inhibition (IC50) at human DGKα [1] is 1.4 µM; on human DGKζ [2] (setting [6]) it was 21 µM.
Take `C#CCn1c(=O)c([N+](=O)[O-])c(N2CCN(C(c3ccccc3)c3ccccc3)CC2)c2ncccc21` [Example 165, 4-(4-benzhydrylpiperazin-1-yl)-3-nitro-1-(prop-2-yn-1-yl)-1,5-naphthyridin-2(1H)-one]: the IC50 came out at 2.8 µM against human DGKα [1]; 4.1 µM on human DGKζ [2] (setting [6]); 3.4 µM at human DGKα [3]; 92 µM at human DGKζ [4] (detergent/lipid micelle substrate, read-out: DGKζ IC50).
For the molecule `Cn1c(=O)c([N+](=O)[O-])c(N2CCN(Cc3cccc4ccccc34)CC2)c2nc(Br)ccc21` [Example 55, 6-bromo-1-methyl-4-(4-(naphthalen-1-ylmethyl)piperazin-1-yl)-3-nitro-1,5-naphthyridin-2(1H)-one], the IC50 on human DGKα [1] was determined as 0.19 µM; at human DGKζ [2] (setting [6]) it was 1.8 µM; in assay [5] it was 0.038 µM.
Take `Cc1ccc(C(c2ccccc2)N2CCN(c3c(C#N)c(=O)n(C)c4ccc(Br)nc34)CC2)cc1` (stereo not shown) [Example 431, 6-bromo-1-methyl-4-{4-[(4-methylphenyl)(phenyl)methyl]piperazin-1-yl}-2-oxo-1,2-dihydro-1,5-naphthyridine-3-carbonitrile]: the IC50 at human DGKα [1] and on human DGKζ [2] (setting [6]) was 9 µM in each case.
With `Cn1c(=O)c(C#N)c(N2CCN(C(c3ccccc3)c3ccccc3)CC2)c2nc(Cl)ccc21` [Example 358, 6-chloro-4-[4-(diphenylmethyl)piperazin-1-yl]-1-methyl-2-oxo-1,2-dihydro-1,5-naphthyridine-3-carbonitrile], the IC50 at human DGKα [1] is more than 240 µM; at human DGKζ [2] (setting [6]), more than 240 µM; in assay [5], 6.5 µM.
Consider `COc1ncccc1C(c1ccc(F)cc1)N1CCN(c2c(C#N)c(=O)n(C)c3ccc(C)nc23)CC1` (stereo not shown) [Example 254, 4-{4-[(4-fluorophenyl)(2-methoxypyridin-3-yl)methyl]piperazin-1-yl}-1,6-dimethyl-2-oxo-1,2-dihydro-1,5-naphthyridine-3-carbonitrile], for which the IC50 turned out to be 1.7 µM against human DGKα [1] and 16 µM at human DGKζ [2] (setting [6]).
Consider `Cn1c(=O)c(C#N)c(N2CCN(C(c3ccccc3)c3ccccc3O)CC2)c2ncccc21` (stereo not shown) [Example 349, 4-{4-[(2-hydroxyphenyl)(phenyl)methyl]piperazin-1-yl}-1-methyl-2-oxo-1,2-dihydro-1,5-naphthyridine-3-carbonitrile], for which the IC50 worked out at 1.3 µM against human DGKα [1], 32 µM on human DGKζ [2] (setting [6]) and 1.4 µM in assay [5].
In the case of `O=c1c([N+](=O)[O-])c(N2CCN(C(c3ccccc3)c3ccccc3)CC2)c2ncccc2n1CCC1OCCCO1` [Example 166, 1-(2-(1,3-dioxan-2-yl)ethyl)-4-(4-benzhydrylpiperazin-1-yl)-3-nitro-1,5-naphthyridin-2(1H)-one], the concentration for half-maximal inhibition (IC50) against human DGKα [1] was found to be 210 µM; at human DGKζ [2] (setting [6]), 230 µM; in assay [5], 3.8 µM.
In the case of `Cn1c(=O)c(C#N)c(N2CCN(C(c3ccc(F)cc3)c3ccc(F)cc3)CC2)c2ncccc21` [Example 347, 4-{4-[bis(4-fluorophenyl)methyl]piperazin-1-yl}-1-methyl-2-oxo-1,2-dihydro-1,5-naphthyridine-3-carbonitrile], the IC50 was found to be 2.6 µM at human DGKα [1] and 1.2 µM in assay [5].
For `COc1cc(F)ccc1C(c1ccc(F)cc1OC)N1CCN(c2c(C#N)c(=O)n(C)c3ccc(C#N)nc23)CC1` [Example 409, 8-{4-[bis(4-fluoro-2-methoxyphenyl)methyl]piperazin-1-yl}-5-methyl-6-oxo-5,6-dihydro-1,5-naphthyridine-2,7-dicarbonitrile], the values for the IC50 against human DGKα [1] and on human DGKζ [2] (setting [6]) were more than 240 µM and 0.95 µM, respectively.
Regarding `Cc1ccc2c(n1)c(N1CCN(C(c3ccc(F)cc3)C3CC3)CC1)c(C#N)c(=O)n2C` (stereo not shown) [Example 250, 4-{4-[cyclopropyl(4-fluorophenyl)methyl]piperazin-1-yl}-1,6-dimethyl-2-oxo-1,2-dihydro-1,5-naphthyridine-3-carbonitrile], the values for the IC50 against human DGKα [1] and at human DGKζ [2] (setting [6]) were 5.1 µM and more than 240 µM, respectively.
